# What was measured:
# [1] = tested on: Beta-glucosidase (B-glu1, SEQ: 1); assay: de-glycosylation (hydrolysis) of steviol glycosides by purified recombinant B-glu1, HPLC analysis; type: biochemical, Pichia pastoris; conditions: for Products of hydrolysis of steviol glycoside substrate by B-glu1: recombinant B-glu1 10 μg in 300 μl, 1 mg/ml steviol glycoside, 50 mM potassium phosphate pH 7.2, 30-37° C.; for extent of conversion by recombinant B-glu1 at 24 hrs: 1 g/L substrate
# Excerpt: According to the current disclosure Pichia pastoris genome analysis was completed and several beta-glycosidase candidate genes were identified. Full length DNA fragments of all candidate beta-glucosidase genes were commercially synthesized. Almost all codons of the cDNA were changed to those preferred for E. coli (Genscript, NJ). The synthesized DNA was cloned into a bacterial expression vector pETite N-His SUMO Kan Vector (Lucigen). These same experiments could be performed in Yarrowia lipolytica with sequences optimized for such use.
# Each expression construct was transformed into E. coli BL21 (DE3), which was subsequently grown in LB media containing 50 μg/mL kanamycin at 37° C. until reaching an OD600 of 0.8-1.0. Protein expression was induced by addition of 1 mM isopropyl β-D-1-thiogalactopyranoside (IPTG) and the culture was further grown at 16° C. for 22 hr. Cells were harvested by centrifugation (3,000×g; 10 min; 4° C.). The cell pellets were collected and were either used immediately or stored at −80° C.
# The cell pellets typically were re-suspended in lysis buffer (50 mM potassium phosphate buffer, pH 7.2, 25 ug/ml lysozyme, 5 ug/ml DNase I, 20 mM imidazole, 500 mM NaCl, 10% glycerol, and 0.4% Triton X-100). The cells were disrupted by sonication under 4° C., and the cell debris was clarified by centrifugation (18,000×g; 30 min). Supernatant was loaded to an equilibrated (equilibration buffer: 50 mM potassium phosphate buffer, pH 7.2, 20 mM imidazole, 500 mM NaCl, 10% glycerol) Ni-NTA (Qiagen) affinity column. After loading of protein sample, the column was washed with equilibration buffer to remove unbound contaminant proteins. The His-tagged beta-glucosidase recombinant polypeptides were eluted by equilibration buffer containing 250 mM imidazole.
# The purified candidate beta-glucosidase recombinant polypeptides were assayed for de-glycosylation activity by using various steviol glycosides as substrate. Typically, the recombinant polypeptide (10 μg) was tested in a 300 μl in vitro reaction system. The reaction system contains 50 mM potassium phosphate buffer, pH 7.2, 1 mg/ml steviol glycoside. The reaction was performed at 30-37° C. and 50 ul reaction was terminated by adding 200 μL 1-butanol at various time points. The samples were extracted three times with 200 μL 1-butanol. The pooled fraction was dried and dissolved in 100 μL 80% methanol for high-performance liquid chromatography (HPLC) analysis.
# HPLC analysis was then performed using a Dionex UPLC ultimate 3000 system (Sunnyvale, Calif.), including a quaternary pump, a temperature controlled column compartment, an auto sampler and a UV absorbance detector. A Synergi Hydro-RP column (Phenomenex) with guard column was used for the characterization of steviol glycosides in the pooled samples. Acetonitrile in water was used mobile phase in the HPLC analysis. The detection wavelength used in the HPLC analysis was 210 nm.
# [2] = tested on: disrupted Pichia cells (released B-glu1 enzyme); assay: hydrolysis of steviol glycosides by disrupted Pichia cells (crude extract), HPLC analysis; type: biochemical, Pichia pastoris; conditions: crude protein 50 ug in 300 ul, 1 g/L substrate, pH 7.2, 30-37° C.; FIG. 8 samples at 24 hours
# Method: Pichia cells were suspended in extraction buffer (50 mM potassium phosphate buffer, pH 7.2; 150 mM NaCl). After sonication, the supernatant (crude extract) was collected by centrifuge set at 12,000 g at 4° C. The resulting crude protein (50 ug) was tested in a 300 ul in vitro reaction system. The reaction system contains 50 mM potassium phosphate buffer, pH 7.2, 1 mg/ml steviol glycoside. The reaction was performed at 30-37° C. and 50 ul reaction was terminated by adding 200 μL 1-butanol at various time points. The samples were extracted three times with 200 μL 1-butanol. The pooled fraction was dried and dissolved in 100 μL 80% methanol for high-performance liquid chromatography (HPLC) analysis. HPLC analysis was then performed using a Dionex UPLC ultimate 3000 system (Sunnyvale, Calif.), including a quaternary pump, a temperature controlled column compartment, an auto sampler and a UV absorbance detector. A Synergi Hydro-RP column (Phenomenex) with guard column was used for the characterization of steviol glycosides in the pooled samples. Acetonitrile in water was used mobile phase in the HPLC analysis. The detection wavelength used in the HPLC analysis was 210 nm.
# [3] = relative to table sugar; cited from earlier work
Molecule,Products of hydrolysis of steviol glycoside substrate by B-glu1 [1],Products of hydrolysis by disrupted Pichia cells [2],other results
rebaudioside B [Reb B],No cleavage,,
"C=C1C[C@@]23CC[C@H]4[C@@](C)(CCC[C@@]4(C)C(=O)O[C@@H]4O[C@H](CO)[C@@H](O)[C@H](O)[C@H]4O)[C@@H]2CC[C@]1(O[C@@H]1O[C@H](CO)[C@@H](O)[C@H](O[C@@H]2O[C@H](CO)[C@@H](O)[C@H](O)[C@H]2O)[C@H]1O)C3 [Reb G, rebaudioside G]","Steviol-13-O-glucoside (S-13-G), steviol",steviol-13-glucoside and continually to produce steviol,Products of hydrolysis of steviol glycoside substrate by B-glu1 ([1]; listed as Rebaudioside G): steviol-13-glucoside
"C=C1C[C@@]23CC[C@H]4[C@@](C)(CCC[C@@]4(C)C(=O)O[C@@H]4O[C@H](CO)[C@@H](O)[C@H](O[C@@H]5O[C@H](CO)[C@@H](O)[C@H](O)[C@H]5O)[C@H]4O)[C@@H]2CC[C@]1(O[C@@H]1O[C@H](CO)[C@@H](O)[C@H](O[C@@H]2O[C@H](CO)[C@@H](O)[C@H](O)[C@H]2O)[C@H]1O[C@@H]1O[C@H](CO)[C@@H](O)[C@H](O)[C@H]1O)C3 [Reb 1, rebaudioside I]","Reb A, Reb B",rebaudioside B,extent of conversion by recombinant B-glu1 at 24 hrs [1]: completely; Products of hydrolysis of steviol glycoside substrate by B-glu1 ([1]; listed as Rebaudioside I): rebaudioside A and the produced A can be hydrolyzed to produce rebaudioside B
"C=C1C[C@@]23CC[C@H]4[C@@](C)(CCC[C@@]4(C)C(=O)O[C@@H]4O[C@H](CO)[C@@H](O)[C@H](O)[C@H]4O)[C@@H]2CC[C@]1(O[C@@H]1O[C@H](CO)[C@@H](O)[C@H](O)[C@H]1O)C3 [Rub, rubusoside]","Steviol-13-O-glucoside (S-13-G), steviol",steviol-13-glucoside and continually to produce steviol,Products of hydrolysis of steviol glycoside substrate by B-glu1 ([1]; listed as Rubusoside): steviol-13-glucoside
C=C1C[C@@]23CC[C@H]4[C@@](C)(CCC[C@@]4(C)C(=O)O)[C@@H]2CC[C@]1(O[C@@H]1O[C@H](CO)[C@@H](O)[C@H](O)[C@H]1O)C3 [steviol-13-glucoside],steviol,,extent of conversion by recombinant B-glu1 at 24 hrs [1]: completely
"C=C1C[C@@]23CC[C@H]4[C@@](C)(CCC[C@@]4(C)C(=O)O[C@@H]4O[C@H](CO)[C@@H](O)[C@H](O)[C@H]4O)[C@@H]2CC[C@]1(O[C@@H]1O[C@H](CO)[C@@H](O)[C@H](O[C@@H]2O[C@H](CO)[C@@H](O)[C@H](O)[C@H]2O)[C@H]1O[C@@H]1O[C@H](CO)[C@@H](O)[C@H](O)[C@H]1O)C3 [Reb A, rebaudioside A]",Reb B,rebaudioside B,Products of hydrolysis of steviol glycoside substrate by B-glu1 ([1]; listed as Rebaudioside A): rebaudioside B
"C=C1C[C@@]23CC[C@H]4[C@@](C)(CCC[C@@]4(C)C(=O)O[C@@H]4O[C@H](CO)[C@@H](O)[C@H](O)[C@H]4O[C@@H]4O[C@H](CO)[C@@H](O)[C@H](O)[C@H]4O)[C@@H]2CC[C@]1(O[C@@H]1O[C@H](CO)[C@@H](O)[C@H](O)[C@H]1O[C@@H]1O[C@H](CO)[C@@H](O)[C@H](O)[C@H]1O)C3 [Reb E, rebaudioside E]","stevioside, Steviolbioside (SB)",steviolbioside,Products of hydrolysis of steviol glycoside substrate by B-glu1 ([1]; listed as Rebaudioside E): stevioside and steviolbioside
"C=C1C[C@@]23CC[C@H]4[C@@](C)(CCC[C@@]4(C)C(=O)O[C@@H]4O[C@H](CO)[C@@H](O)[C@H](O)[C@H]4O)[C@@H]2CC[C@]1(O[C@@H]1O[C@H](CO)[C@@H](O)[C@H](O)[C@H]1O[C@@H]1O[C@H](CO)[C@@H](O)[C@H](O)[C@H]1O)C3 [Stevioside, stevioside]",Steviolbioside (SB),steviolbioside,sweetness relative to sucrose [3]: 100-150 times sweeter than sucrose
"C=C1C[C@@]23CC[C@H]4[C@@](C)(CCC[C@@]4(C)C(=O)O[C@@H]4O[C@H](CO)[C@@H](O)[C@H](O[C@@H]5O[C@H](CO)[C@@H](O)[C@H](O)[C@H]5O)[C@H]4O[C@@H]4O[C@H](CO)[C@@H](O)[C@H](O)[C@H]4O)[C@@H]2CC[C@]1(O[C@@H]1O[C@H](CO)[C@@H](O)[C@H](O[C@@H]2O[C@H](CO)[C@@H](O)[C@H](O)[C@H]2O)[C@H]1O[C@@H]1O[C@H](CO)[C@@H](O)[C@H](O)[C@H]1O)C3 [Reb M, rebaudioside M]",No cleavage,,
"C=C1C[C@@]23CC[C@H]4[C@@](C)(CCC[C@@]4(C)C(=O)O[C@@H]4O[C@H](CO)[C@@H](O)[C@H](O)[C@H]4O[C@@H]4O[C@H](CO)[C@@H](O)[C@H](O)[C@H]4O)[C@@H]2CC[C@]1(O[C@@H]1O[C@H](CO)[C@@H](O)[C@H](O[C@@H]2O[C@H](CO)[C@@H](O)[C@H](O)[C@H]2O)[C@H]1O[C@@H]1O[C@H](CO)[C@@H](O)[C@H](O)[C@H]1O)C3 [Reb D, rebaudioside D]",Reb B,rebaudioside B,Products of hydrolysis of steviol glycoside substrate by B-glu1 ([1]; listed as Rebaudioside D): rebaudioside B (FIG. 6B) and Reb A
"B-glu1: Pichia pastoris (GS115) beta-glucosidase, SEQ ID NO: 1, His-tagged, expressed in E. coli (protein, listed as Pichia pastoris, His tag) MTQLDVESLIQELTLNEKVQLLSGSDFWHTTPVRRLGIPKMRLSDGPNGVRGTKFFNGVPTACFPCGTGLGATFDKELLKEAGSLMADEAKAKAASVVLGPTANIARGPNGGRGFESFGEDPVVNGLSSAAMINGLQGKYIAATMKHYVCNDLEMDRNCIDAQVSHRALREVYLLPFQIAVRDANPRAIMTAYNKANGEHVSQSKFLLDEVLRKEWGWDGLLMSDWFGVYDAKSSITNGLDLEMPGPPQCRVHSATDHAINSGEIHINDVDERVRSLLSLINYCHQSGVTEEDPETSDNNTPETIEKLRKISRESIVLLKDDDRNRSILPLKKSDKIAVIGNNAKQAAYCGGGSASVLSYHTTTPFDSIKSRLEDSNTPAYTIGADAYKNLPPLGPQMTDSDGKPGFDAKFFVGSPTSKDRKLIDHFQLTNSQVFLVDYYNEQIPENKEFYVDVEGQFIPEEDGTYNFGLTVFGTGRLFVDDKLVSDSSQNQTPGDSFFGLAAQEVIGSIHLVKGKAYKIKVLYGSSVTRTYEIAASVAFEGGAFTFGAAKQRNEDEEIARAVEIAKANDKVVLCIGLNQDFESEGFDRPDIKIPGATNKMVSAVLKANPNTVIVNQTGTPVEMPWASDAPVILQAWFGGSEAGTAIADVLFGDYNPSGKLTVTFPLRFEDNPAYLNFQSNKQACWYGEDVYVGYRYYETIDRPVLFPFGHGLSFTEFDFTDMFVRLEEENLEVEVVVRNTGKYDGAEVVQLYVAPVSPSLKRPIKELKEYAKIFLASGEAKTVHLSVPIKYATSFFDEYQKKWCSEKGEYTILLGSSSADIKVSQSITLEKTTFWKGL",,,activity to cleave related steviol glycosides ([1]; activity screening of candidate Pichia pastoris beta-glucosidases): strong activity
